Reference: patent US20220009920A1 (GB005, Inc., priority 2020, published 2022)

How the values were obtained:
Experiment in all cases: Large panel kinase profiling
Type in all cases: biochemical
Conditions in all cases: 1 μM test article, 1 mM ATP
GRK5 = target: T1, GRK5 (Homo sapiens, UniProt P34947)
T1 construct: AssayQuant Technologies, Inc. (service provider)
Method in brief: (§1)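 Profiling across the panel relied on the PhosphoSens CSox-Sensor format. A compound concentration of 1 μM and an ATP level of 1 mM were used throughout.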

EIF2AK3/PEK = target: T2, EIF2AK3/PEK (Homo sapiens, UniProt Q9NZJ5)
T2 sequence (Q9NZJ5 30-1116): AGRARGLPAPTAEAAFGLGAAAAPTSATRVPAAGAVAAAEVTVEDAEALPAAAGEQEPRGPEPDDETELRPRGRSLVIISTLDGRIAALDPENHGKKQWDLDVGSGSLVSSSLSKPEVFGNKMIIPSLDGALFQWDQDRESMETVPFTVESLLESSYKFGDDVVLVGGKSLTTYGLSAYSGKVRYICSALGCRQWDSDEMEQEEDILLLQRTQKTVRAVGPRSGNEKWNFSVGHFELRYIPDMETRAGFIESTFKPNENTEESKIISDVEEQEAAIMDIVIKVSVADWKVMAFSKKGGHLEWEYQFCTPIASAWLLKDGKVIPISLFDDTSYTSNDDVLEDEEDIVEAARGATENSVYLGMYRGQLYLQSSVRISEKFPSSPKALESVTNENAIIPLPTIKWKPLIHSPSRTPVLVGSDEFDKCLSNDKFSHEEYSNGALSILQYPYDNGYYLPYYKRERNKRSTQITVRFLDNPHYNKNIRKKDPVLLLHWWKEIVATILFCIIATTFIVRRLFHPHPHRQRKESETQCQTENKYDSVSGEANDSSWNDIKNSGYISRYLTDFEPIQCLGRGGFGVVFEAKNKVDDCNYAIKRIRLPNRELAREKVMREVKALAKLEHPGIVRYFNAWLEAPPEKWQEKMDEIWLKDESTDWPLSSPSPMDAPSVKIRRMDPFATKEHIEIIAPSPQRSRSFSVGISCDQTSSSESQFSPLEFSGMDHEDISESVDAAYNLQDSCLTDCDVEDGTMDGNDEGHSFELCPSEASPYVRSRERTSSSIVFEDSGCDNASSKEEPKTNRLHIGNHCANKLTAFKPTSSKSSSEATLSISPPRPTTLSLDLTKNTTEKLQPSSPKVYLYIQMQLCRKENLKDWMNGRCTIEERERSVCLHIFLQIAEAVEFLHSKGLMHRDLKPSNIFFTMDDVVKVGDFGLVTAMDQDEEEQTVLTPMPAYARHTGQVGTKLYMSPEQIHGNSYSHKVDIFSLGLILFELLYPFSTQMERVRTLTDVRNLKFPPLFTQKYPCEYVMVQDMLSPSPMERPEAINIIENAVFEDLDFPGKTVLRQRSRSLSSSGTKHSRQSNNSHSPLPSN
Method in brief: as §1

ERN1 = ERN1 (Homo sapiens, UniProt O75460)
ERN1, sequence (O75460 19-977, species assumed): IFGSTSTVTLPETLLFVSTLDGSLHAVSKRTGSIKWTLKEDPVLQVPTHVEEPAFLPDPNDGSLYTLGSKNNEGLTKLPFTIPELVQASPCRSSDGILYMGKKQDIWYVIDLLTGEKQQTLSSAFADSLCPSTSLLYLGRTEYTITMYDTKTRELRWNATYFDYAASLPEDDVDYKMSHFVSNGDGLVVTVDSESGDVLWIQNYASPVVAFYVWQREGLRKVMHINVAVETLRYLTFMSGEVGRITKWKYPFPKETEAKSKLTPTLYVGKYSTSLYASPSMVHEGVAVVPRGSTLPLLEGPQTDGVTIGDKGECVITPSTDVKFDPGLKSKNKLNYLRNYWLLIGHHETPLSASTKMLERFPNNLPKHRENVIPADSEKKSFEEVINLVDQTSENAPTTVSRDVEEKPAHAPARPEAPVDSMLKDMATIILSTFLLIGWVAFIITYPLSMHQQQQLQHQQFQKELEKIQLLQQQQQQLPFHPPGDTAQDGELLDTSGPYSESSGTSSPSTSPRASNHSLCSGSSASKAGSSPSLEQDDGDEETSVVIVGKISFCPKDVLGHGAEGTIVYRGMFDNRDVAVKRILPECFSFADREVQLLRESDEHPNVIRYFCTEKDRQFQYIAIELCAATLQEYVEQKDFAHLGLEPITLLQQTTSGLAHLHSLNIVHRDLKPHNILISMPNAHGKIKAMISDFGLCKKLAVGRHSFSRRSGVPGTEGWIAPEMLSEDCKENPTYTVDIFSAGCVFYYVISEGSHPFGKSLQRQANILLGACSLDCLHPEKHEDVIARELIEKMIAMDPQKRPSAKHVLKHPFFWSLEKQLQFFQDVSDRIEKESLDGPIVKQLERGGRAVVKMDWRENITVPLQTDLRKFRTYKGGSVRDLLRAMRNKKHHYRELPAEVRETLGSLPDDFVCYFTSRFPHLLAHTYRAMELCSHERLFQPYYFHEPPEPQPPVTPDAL
Method in brief: as §1

EPHA7 = EPHA7 (Homo sapiens, UniProt Q15375)
EPHA7, sequence (Q15375 28-998, species assumed): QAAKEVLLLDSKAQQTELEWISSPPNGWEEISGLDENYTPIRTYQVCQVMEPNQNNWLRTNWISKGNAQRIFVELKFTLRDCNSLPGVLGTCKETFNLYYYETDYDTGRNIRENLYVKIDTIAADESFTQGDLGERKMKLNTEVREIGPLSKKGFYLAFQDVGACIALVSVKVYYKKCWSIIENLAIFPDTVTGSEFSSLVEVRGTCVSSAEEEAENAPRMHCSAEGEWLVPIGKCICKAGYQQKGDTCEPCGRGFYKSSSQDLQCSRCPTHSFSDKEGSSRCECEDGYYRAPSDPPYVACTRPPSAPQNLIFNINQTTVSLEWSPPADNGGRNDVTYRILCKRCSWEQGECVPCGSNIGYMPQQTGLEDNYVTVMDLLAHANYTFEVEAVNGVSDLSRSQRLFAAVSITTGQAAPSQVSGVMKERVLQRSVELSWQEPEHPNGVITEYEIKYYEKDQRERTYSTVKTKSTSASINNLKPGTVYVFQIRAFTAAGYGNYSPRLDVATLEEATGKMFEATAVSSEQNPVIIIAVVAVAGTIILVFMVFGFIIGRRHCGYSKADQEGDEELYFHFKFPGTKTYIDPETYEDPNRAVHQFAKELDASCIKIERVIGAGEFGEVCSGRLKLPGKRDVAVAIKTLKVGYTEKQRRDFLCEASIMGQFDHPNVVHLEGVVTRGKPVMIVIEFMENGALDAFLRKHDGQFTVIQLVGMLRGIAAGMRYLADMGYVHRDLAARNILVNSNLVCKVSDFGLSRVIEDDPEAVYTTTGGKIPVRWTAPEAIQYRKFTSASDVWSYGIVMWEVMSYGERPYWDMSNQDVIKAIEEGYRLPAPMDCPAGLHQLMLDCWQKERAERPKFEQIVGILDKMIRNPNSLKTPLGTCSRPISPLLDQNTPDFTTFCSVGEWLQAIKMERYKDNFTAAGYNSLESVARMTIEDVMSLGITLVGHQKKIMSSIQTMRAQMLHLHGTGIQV
Method in brief: as §1

TYK2(JH1) = target: T3, TYK2(JH1) (Homo sapiens, UniProt P29597)
T3 construct: TYK2(JH1); AssayQuant Technologies, Inc. (contract laboratory that ran the panel)
T3 sequence (P29597 897-1176 limits assumed): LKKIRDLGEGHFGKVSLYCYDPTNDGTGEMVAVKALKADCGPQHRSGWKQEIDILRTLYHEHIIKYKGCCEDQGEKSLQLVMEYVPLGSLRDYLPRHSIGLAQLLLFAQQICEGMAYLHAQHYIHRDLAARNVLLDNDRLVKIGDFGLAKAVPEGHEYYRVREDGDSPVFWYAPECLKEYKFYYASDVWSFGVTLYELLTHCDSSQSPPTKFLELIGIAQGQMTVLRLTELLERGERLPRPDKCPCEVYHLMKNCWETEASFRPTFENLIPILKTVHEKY
Method in brief: as §1

T1 sequence (P34947 whole entry, species assumed): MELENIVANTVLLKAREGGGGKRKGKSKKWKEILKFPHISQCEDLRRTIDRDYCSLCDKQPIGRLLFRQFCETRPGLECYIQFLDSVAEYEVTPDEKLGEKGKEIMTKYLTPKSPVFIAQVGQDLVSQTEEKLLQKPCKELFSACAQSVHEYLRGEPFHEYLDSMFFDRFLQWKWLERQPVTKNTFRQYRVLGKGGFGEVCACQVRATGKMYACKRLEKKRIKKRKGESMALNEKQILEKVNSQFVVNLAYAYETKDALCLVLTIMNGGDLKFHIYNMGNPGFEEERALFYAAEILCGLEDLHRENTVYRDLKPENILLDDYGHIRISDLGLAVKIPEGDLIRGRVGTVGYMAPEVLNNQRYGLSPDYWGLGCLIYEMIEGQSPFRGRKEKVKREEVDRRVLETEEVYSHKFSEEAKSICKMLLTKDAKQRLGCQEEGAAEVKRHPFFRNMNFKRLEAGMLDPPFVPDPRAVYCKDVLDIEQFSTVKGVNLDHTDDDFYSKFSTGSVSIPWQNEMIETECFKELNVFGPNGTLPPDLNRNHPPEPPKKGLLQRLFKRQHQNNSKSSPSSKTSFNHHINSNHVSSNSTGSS

Row | Structure (SMILES) | inhibition at 1 µM (GRK5) | inhibition at 1 µM (EIF2AK3/PEK) | inhibition at 1 µM (ERN1) | inhibition at 1 µM (EPHA7) | inhibition at 1 µM (TYK2(JH1))
1 | C=CC(=O)N1CCCC(c2c(F)cc(C(N)=O)c3[nH]c4c(c23)CCCCC4)C1 (single isomer, unassigned) [Compound 5-6] | -8.8% | -9.2% | -5.4% | -0.1% | -2.7%
2 | C=CC(=O)N1CCC[C@@H](c2c(F)cc(C(N)=O)c3[nH]c4c(c23)CCC4)C1 [Compound 10-2, (S)-8-(1-acryloylpiperidin-3-yl)-7-fluoro-1,2,3,4-tetrahydrocyclo-penta[b]indole-5-carboxamide] | -2.2% | -3.5% | -2.9% | -4.7% | 3.5%
3 | C=CC(=O)N1CCC[C@@H](c2c(F)cc(C(N)=O)c3[nH]c4c(c23)CC2(CC4)CC2)C1 [Compound 6-2, (S)-5-(1-acryloylpiperidin-3-yl)-6-fluoro-1,2,4,9-tetrahydrospiro[carbazole-3,1′-cyclopropane]-8-carboxamide] | -114% | -18.5% | 3.1% | 5.1% | -1.1%
